Laboratory results: a melting point compilation (Tetko et al.; mined from patent text by program, amines drawn as free bases though some values may be those of a salt)

`C#CCn1c(=O)sc2cc(F)c(-n3c(=O)cc(C)n(C)c3=O)cc21` gave a melting point of 180 to 181 °C.
Molecule `CN1C=NC(Cc2ccccc2)(Cc2ccccc2)C1=O` has a melting point of 125 to 126 °C.
For `Nc1ccc2c(c1)OC1(CC1)C2=O`, the melting point was 188 to 189 °C.
In the case of `Cc1ncncc1C(=O)Nc1cnc(-n2nc(C(F)(F)F)cc2C2CC2)nc1`, the melting point is reported as 201 to 203 °C.
Work on `CC=NOCc1nc2c(N)nc(C)c(C)c2n1CCCCNC(=O)c1ccccc1` yielded a melting point of 192 to 194 °C.
For `CCCCC(O)c1cccc(NC(=O)OCc2ccccc2)c1` (centres undefined), the melting point was 83 to 86 °C.
Molecule `Nc1scc2c1C(=O)c1ccc(Cl)cc1-2` has a melting point of 201 to 202 °C.
For `O=[N+]([O-])c1ccc(OCCOc2ccccc2)cc1`, the melting point was 86 to 87 °C.
For `C#CCn1c(=O)sc2cc(F)c(-n3c(=O)cc(C)[nH]c3=O)cc21`, the melting point was > 250 °C.
In the case of `Cc1nc(-c2cn(Cc3ccccc3)nn2)sc1C(=O)NCc1cccnc1`, the melting point is reported as 212 to 213 °C.
In the case of `N#CN1CCC2(CC1)CN(c1ccc(Cl)cc1)c1ccccc12`, the melting point is reported as 178 to 180 °C.
With `O=C(O)C(Sc1ccccc1)c1cc(Cl)cc(Cl)c1` (centres undefined) the melting point was 115 to 119 °C.
With `CS(=O)(=O)c1ccc(N)c(C#N)c1` the melting point was 155 to 157 °C.
Work on `CCOC(=O)CCc1ccc(OC)c(OCc2ccccc2)c1` yielded a melting point of 49.5 to 50.5 °C.
With `O=C1CC(C(=O)Nc2ccccc2O)CN1` (centres undefined) the melting point was 133 to 135 °C.
Molecule `CS(=O)(=O)C(=C1CN(C(c2ccccc2)c2ccccc2)C1)c1ccccc1F` has a melting point of 188 °C.
With `COc1ccccc1-n1nc(-c2c(-c3ccccc3)nn3ccccc23)ccc1=O` the melting point was 163 °C.
Work on `Cc1nc(-c2ccccc2)nc(N2CCCC2C(=O)O)c1C` (centres undefined) yielded a melting point of 90 to 92 °C.
`Cc1ccc(S(=O)(=O)N2[C@@H](c3ncn(C)n3)CC[C@H]2c2ccc(F)cc2)cc1` (racemic) gave a melting point of 160 °C.
In the case of `Fc1ccc(-n2nc(-c3cccc(C(F)(F)F)c3)c3ncccc3c2=S)cc1`, the melting point is reported as 214 to 215 °C.
In the case of `Cc1c(C)c2c(c(C)c1OC=O)SC(CCCI)O2` (centres undefined), the melting point is reported as 91 to 93 °C.
In the case of `CCOC(=O)c1ncc(C)c(-c2ccccc2)c1C(=O)N(CCO)Cc1cc(C(F)(F)F)cc(C(F)(F)F)c1`, the melting point is reported as 138 to 139 °C.
With `CCCCCCC1c2cc(CBr)ccc2-c2ccc(CBr)cc21` the melting point was 143 to 145 °C.
For `CN(C)C=C1CSc2ccc(Cl)cc2C1=O`, the melting point was 126 to 127 °C.
`CN(Cc1cccc(-c2ccc(O)cc2)c1)C(=O)OC(C)(C)C` gave a melting point of 174 °C.
Work on `CCCCCCCCCCCCCCCCCCOc1cc2ccccc2c(N)c1O` yielded a melting point of 97 to 99 °C.
For `CC(NSC(=O)OC(C)(C)C)C(=O)n1c(=O)[nH]c2ccccc21` (centres undefined), the melting point was 101 °C.
For `CCCCCCCCCCCCCCCCCC(=O)NCC(C)(C)COC(=O)CCCCCCCCCCCCCCCCC`, the melting point was 60 to 62 °C.
With `Cc1ccc(-c2ccccc2C(=O)NN)cc1` the melting point was 98 to 99 °C.
Molecule `CC(C)c1nn(C(=O)NC2CCCC2)c(=O)n1N` has a melting point of 109 °C.
`O=C(O)CCCCn1c(=O)c2cc(O)ccc2n(CCCCN2CCC(OC(c3ccccc3)c3ccccc3)CC2)c1=O` showed a melting point of 234 to 236 °C.
`CSc1ccc2c(c1)N(CCCN1CCC(C(O)F)CC1c1ccccc1)c1ccccc1S2` (centres undefined) gave a melting point of 60 °C.
With `O=[N+]([O-])c1cc(O)ccc1NCCO` the melting point was 142 °C.
For `O=C(Oc1cc(OC(=O)c2ccccc2)c(Cl)cn1)c1ccccc1`, the melting point was 124 to 125 °C.
Work on `Cn1ccc(Nc2n[nH]c3ccc(-c4ncccc4Cl)cc23)n1` yielded a melting point of 190 to 191 °C.
For `COc1ccc([C@@H]2Sc3ccccc3N(CCN(C)C)C(=O)[C@@H]2O)cc1` (relative stereo), the melting point was 88 to 90 °C.
For `Clc1cccc(C2CCN(CCCOc3ccc4scnc4c3)CC2)c1Cl`, the melting point was 114 to 116 °C.
For `COC(=O)c1cc2c3cccc(Cl)c3n(C)c2s1`, the melting point was 166 to 168 °C.
In the case of `C[C@H]1C[C@@]2(N)CN(c3c(F)cc4c(=O)c(C(=O)O)cn5c4c3OC[C@@H]5C)C[C@@H]12`, the melting point is reported as 122 to 124 °C.
`O=C(O)CCc1cn(Cc2ccc(OCc3cccnc3)cc2)nc1-c1ccccc1` gave a melting point of 112 to 113 °C.
`N#CCSC(=S)SCCc1ccccc1` gave a melting point of 72 to 73 °C.
In the case of `CC(C)CCCC(C)C1CCC2C3CCC4CC(=O)CC(C)C4(C)C3CCC12C` (centres undefined), the melting point is reported as 132 to 133 °C.
Work on `NC1=Nc2ncccc2OC1` yielded a melting point of 173 to 174 °C.
`COc1ccc(OC)c(CN2CCc3cc(O)ccc3C2)c1` showed a melting point of 178 to 192 °C.
With `Cc1ccc2c(c1)oc1c(C(=O)NN3CCOCC3)nn(-c3ccc(Cl)cc3Cl)c12` the melting point was 178 to 180 °C.
Work on `CS(=O)(=O)c1cccc(NC(=O)c2cnn3c(C(F)(F)F)cc(-c4ccc(C(F)(F)F)c(OCC(F)(F)F)c4)nc23)c1` yielded a melting point of 227 °C.
`CCOC(=O)CCn1ccn(C2CCc3ccccc3C2)c1=S` (centres undefined) gave a melting point of 71 to 73 °C.
Molecule `O=C(COc1ccc2c(-c3ccccc3F)noc2c1Br)NO` has a melting point of 165 to 167 °C.
Work on `Cc1c(NC(=O)CC(C)(C)C)c2c(c3c1C(c1ccc(C(C)C)cc1)CO3)CCCC2` (centres undefined) yielded a melting point of 183 to 184 °C.
